Data: PubChem BioAssay (NCI)
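Values below derive from 48-hour exposures of cells grown in 96-well plates, with endpoints linearly interpolated between the two concentrations bracketing the appropriate inhibition level. Definition used: TGI = concentration required for complete inhibition of growth.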

How the values were obtained:
Experiment in all cases: inhibition of tumour cell growth, NCI panel, 48 h
786-0 renal = test system: 786-0 renal
A498 renal = test system: A498 renal
A549 NSCLC = test system: A549 NSCLC
ACHN renal = test system: ACHN renal
BT-549 breast = test system: BT-549 breast
CAKI-1 renal = test system: CAKI-1 renal
CCRF-CEM leukemia = test system: CCRF-CEM leukemia
COLO 205 colon = test system: COLO 205 colon
DU-145 prostate = test system: DU-145 prostate
EKVX NSCLC = test system: EKVX NSCLC
HCC-2998 colon = test system: HCC-2998 colon
HCT-116 colon = test system: HCT-116 colon
HCT-15 colon = test system: HCT-15 colon
HL-60(TB) leukemia = test system: HL-60(TB) leukemia
HOP-62 NSCLC = test system: HOP-62 NSCLC
HOP-92 NSCLC = test system: HOP-92 NSCLC
HS 578T breast = test system: HS 578T breast
HT29 colon = test system: HT29 colon
IGROV1 ovarian = test system: IGROV1 ovarian
K-562 leukemia = test system: K-562 leukemia
KM12 colon = test system: KM12 colon
LOX IMVI melanoma = test system: LOX IMVI melanoma
M14 melanoma = test system: M14 melanoma
MALME-3M melanoma = test system: MALME-3M melanoma
MCF7 breast = test system: MCF7 breast
MDA-MB-231 breast = test system: MDA-MB-231 breast
MDA-MB-435 = test system: MDA-MB-435
MDA-N = test system: MDA-N
MOLT-4 leukemia = test system: MOLT-4 leukemia
NCI-H226 lung = test system: NCI-H226 lung
NCI-H23 lung = test system: NCI-H23 lung
NCI-H460 lung = test system: NCI-H460 lung
NCI-H522 lung = test system: NCI-H522 lung
NCI/ADR-RES ovarian = test system: NCI/ADR-RES ovarian
OVCAR-3 ovarian = test system: OVCAR-3 ovarian
OVCAR-4 ovarian = test system: OVCAR-4 ovarian
OVCAR-5 ovarian = test system: OVCAR-5 ovarian
OVCAR-8 ovarian = test system: OVCAR-8 ovarian
PC-3 prostate = test system: PC-3 prostate
RPMI-8226 leukemia = test system: RPMI-8226 leukemia
RXF 393 renal = test system: RXF 393 renal
SF-268 CNS = test system: SF-268 CNS
SF-295 CNS = test system: SF-295 CNS
SF-539 CNS = test system: SF-539 CNS
SK-MEL-2 melanoma = test system: SK-MEL-2 melanoma
SK-MEL-28 melanoma = test system: SK-MEL-28 melanoma
SK-MEL-5 melanoma = test system: SK-MEL-5 melanoma
SN12C renal = test system: SN12C renal
SNB-19 CNS = test system: SNB-19 CNS
SNB-75 CNS = test system: SNB-75 CNS
SR leukemia = test system: SR leukemia
SW-620 colon = test system: SW-620 colon
T-47D breast = test system: T-47D breast
TK-10 renal = test system: TK-10 renal
U251 CNS = test system: U251 CNS
UACC-257 melanoma = test system: UACC-257 melanoma
UACC-62 melanoma = test system: UACC-62 melanoma
UO-31 renal = test system: UO-31 renal

SMILES: CC(C)c1cc2c(c(O)c1O)[C@@]1(C)CCCC(C)(C)C1=C(O)C2
- TGI (786-0 renal): 11.8 µM
- TGI (A498 renal): 3.19 µM
- TGI (A549 NSCLC): 5.73 µM
- TGI (ACHN renal): 5.39 µM
- TGI (BT-549 breast): 4.22 µM
- TGI (CAKI-1 renal): 2840 nM
- TGI (CCRF-CEM leukemia): 2120 nM
- TGI (COLO 205 colon): 8.06 µM
- TGI (DU-145 prostate): > 50 µM
- TGI (EKVX NSCLC): 3.56 µM
- TGI (HCC-2998 colon): 2760 nM
- TGI (HCT-116 colon): > 50 µM
- TGI (HCT-15 colon): 6.77 µM
- TGI (HL-60(TB) leukemia): 3.27 µM
- TGI (HOP-62 NSCLC): 13.4 µM
- TGI (HOP-92 NSCLC): 2320 nM
- TGI (HS 578T breast): 13.4 µM
- TGI (HT29 colon): 16.1 µM
- TGI (IGROV1 ovarian): 2790 nM
- TGI (K-562 leukemia): 4.13 µM
- TGI (KM12 colon): 5.78 µM
- TGI (LOX IMVI melanoma): 3.14 µM
- TGI (M14 melanoma): 13.4 µM
- TGI (MALME-3M melanoma): 3.36 µM
- TGI (MCF7 breast): 2850 nM
- TGI (MDA-MB-231 breast): > 50 µM
- TGI (MDA-MB-435): 2770 nM
- TGI (MDA-N): 6.77 µM
- TGI (MOLT-4 leukemia): 2990 nM
- TGI (NCI-H226 lung): > 50 µM
- TGI (NCI-H23 lung): 6.8 µM
- TGI (NCI-H460 lung): 5.89 µM
- TGI (NCI-H522 lung): 3.06 µM
- TGI (NCI/ADR-RES ovarian): 2000 nM
- TGI (OVCAR-3 ovarian): 5.26 µM
- TGI (OVCAR-4 ovarian): 4.55 µM
- TGI (OVCAR-5 ovarian): 9.03 µM
- TGI (OVCAR-8 ovarian): 6.99 µM
- TGI (PC-3 prostate): 3.51 µM
- TGI (RPMI-8226 leukemia): 2150 nM
- TGI (RXF 393 renal): 2960 nM
- TGI (SF-268 CNS): 5.84 µM
- TGI (SF-295 CNS): 4.38 µM
- TGI (SF-539 CNS): 1890 nM
- TGI (SK-MEL-2 melanoma): 2650 nM
- TGI (SK-MEL-28 melanoma): 8.69 µM
- TGI (SK-MEL-5 melanoma): 2320 nM
- TGI (SN12C renal): > 50 µM
- TGI (SNB-19 CNS): 9.32 µM
- TGI (SNB-75 CNS): 2560 nM
- TGI (SR leukemia): 3.21 µM
- TGI (SW-620 colon): 5.4 µM
- TGI (T-47D breast): 20 µM
- TGI (TK-10 renal): 24.2 µM
- TGI (U251 CNS): 4.54 µM
- TGI (UACC-257 melanoma): 3.37 µM
- TGI (UACC-62 melanoma): > 50 µM
- TGI (UO-31 renal): 3.95 µM
